Laboratory results from patent publication US10323028B2, “1,3,4-thiadiazole compounds and their use in treating cancer” (AstraZeneca AB, priority 2015, dated 2019).
Like-named read-outs stand apart in the source and are kept apart here.

Columns and labels:
GLS1 = GLS1 (Homo sapiens (Human), UniProt O94925); experiment: GLS Enzyme Potency Assay (Glutamate Oxidase/AmplexRed coupled assay); format: biochemical; conditions: 6His tagged GLS protein (amino acids 63-669), recombinant; read-out: Assay a) enz IC50
Excerpt: (§1) The following assays were used to measure the effects of the compounds described herein: a) GLS Enzyme Potency Assay; b) GLS Cell Potency Assay; c) GLS Cell Proliferation Assay. During the description of the assays, generally: • i. The following abbreviations have been used: CO2=Carbon dioxide; DMEM=Dulbecco's Modified Eagle Medium; DMSO=Dimethyl sulphoxide; EDTA=Ethylenediaminetetraacetic acid; EGTA=Ethylene glycol tetraacetic acid; FCS=Foetal calf serum; h=Hour(s); NBS=Non-binding surface; SDS=Sodium dodecyl sulphate; TRIS=Tris(Hydroxymethyl)aminomethane. • ii. IC50 values were calculated using a smart fitting model in Genedata.
Assay a): GLS Enzyme Potency Assay
A Glutamate Oxidase/AmplexRed coupled assay was used to measure the ability of compounds to bind to and inhibit the activity of GLS1 in vitro. […] GLS1 was diluted to 2× working concentration and incubated at room temperature to allow the tetrameric/dimeric forms to reach steady state. Assay measurements were performed in buffer comprising 50 mM TRIS pH 7.8, 100 mM NaPO4, pH 7.8, 0.001% v/v Tween20. Purified recombinant GLS1 protein was diluted in assay buffer to 12 nM and pre-incubated at room temperature for 30 minutes. […] DMSO concentration was maintained at 2% by back filling with DMSO solution. 3 μL of diluted GLS1 protein (12 nM) was then dispensed into each well using a BioRaptr automated dispenser (Beckman-Coulter) and incubated for 15 minutes at room temperature. 3 μL of 100 mM glutamine diluted in assay buffer was then added and the reaction incubated at room temperature for 60 minutes. […] An artefact version of the assay where the 6His tagged GLS protein and glutamine were replaced with assay buffer was also used to rule out non specific effects on the assay components.

NCI-H1703 cells = experiment: GLS Cell Proliferation Assay (NCI-H1703 cell proliferation); format: cell-based
Excerpt: as §1
Assay c): GLS Cell Proliferation Assay
The ability of compounds to inhibit cell growth was measured using a 384 well plate NCI-H1703 cell proliferation assay. NCI-H1703 cells were grown in phenol red free RPMI1640, 10% FCS and 2 mM glutamine and seeded at a density of 750 cells per well in 40 μl of growth medium into clear-bottom 384 well assay plates (Corning product code 3712) and incubated for 24 h at 37° C., 5% CO2. […] DMSO concentration was maintained at 0.3% by back filling with DMSO solution. Plates were incubated for 5 days at 37° C., 5% CO2, Sytox Green and Saponin added to final concentration of 2 μM and 0.25% respectively and incubated for 6 h prior to analysis. […] IC50 values were calculated by curve fitting to max inhibition of day zero growth using GeneData software analysis.

[1] = biological target: cellular GLS activity in PC3 cells (Homo sapiens (Human), UniProt O94925); experiment: GLS Cell Potency Assay (PC3 coupled assay measuring cellular glutamate depletion); format: cell-based; conditions: PC3 cells, 6 h incubation, glutamate depletion; read-out: Assay b) GLS cell MOA Mean IC50
Excerpt: as §1
Assay b): GLS Cell Potency Assay
Compounds were assessed for their potential to inhibit cellular GLS activity by use of a PC3 coupled assay measuring cellular glutamate depletion. […] DMSO concentration was maintained at 0.3% by back filling with DMSO solution. PC3 cells were grown in phenol free DMEM, 10% dialyzed FCS, 2 mM glutamine and following dispersal by trypsinisation were plated at 5.6×10^3 cells per well in 40 μl of growth medium directly into the 384 well assay plates containing dispensed compound. After incubation for 6 h at 37° C., 5% CO2 growth media was aspirated and cells lysed in 15 μl of buffer containing 10 mM TRIS pH7.4, 100 mM NaCl, 1 mM EDTA, 1 mM EGTA, 1 mM NaF, 20 mM Na4P2O7, 2 mM Na3VO4, 1% Triton X-100, 10% glycerol, 0.1% SDS and 0.5% deoxycholate.

[2] = NCI-H1703 cells, 5 days; read-out: Assay c) Prolif Mean IC50
[3] = Homo sapiens, NCI-H1703, 120 h, NCI-H1703 cells, 5 days; read-out: Assay c) Prolif Mean IC50

Sequence of GLS1 (O94925 63-669): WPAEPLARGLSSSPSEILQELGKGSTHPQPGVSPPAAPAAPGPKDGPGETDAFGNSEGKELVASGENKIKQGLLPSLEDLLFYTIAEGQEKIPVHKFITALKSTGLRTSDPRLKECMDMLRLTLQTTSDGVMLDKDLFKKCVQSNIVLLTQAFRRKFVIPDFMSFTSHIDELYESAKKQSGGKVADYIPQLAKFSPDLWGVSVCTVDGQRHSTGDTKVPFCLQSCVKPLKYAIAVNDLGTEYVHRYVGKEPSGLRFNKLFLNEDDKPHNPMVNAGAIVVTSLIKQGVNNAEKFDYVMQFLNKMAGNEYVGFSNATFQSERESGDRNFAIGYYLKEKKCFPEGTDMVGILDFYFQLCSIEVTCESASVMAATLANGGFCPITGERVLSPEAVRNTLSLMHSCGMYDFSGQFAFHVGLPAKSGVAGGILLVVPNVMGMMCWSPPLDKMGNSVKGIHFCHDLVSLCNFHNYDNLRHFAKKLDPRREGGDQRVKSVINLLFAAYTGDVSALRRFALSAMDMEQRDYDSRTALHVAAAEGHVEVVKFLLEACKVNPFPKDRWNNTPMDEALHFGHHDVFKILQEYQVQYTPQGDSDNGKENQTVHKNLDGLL
Sequence of cellular GLS activity in PC3 cells (O94925 73-669): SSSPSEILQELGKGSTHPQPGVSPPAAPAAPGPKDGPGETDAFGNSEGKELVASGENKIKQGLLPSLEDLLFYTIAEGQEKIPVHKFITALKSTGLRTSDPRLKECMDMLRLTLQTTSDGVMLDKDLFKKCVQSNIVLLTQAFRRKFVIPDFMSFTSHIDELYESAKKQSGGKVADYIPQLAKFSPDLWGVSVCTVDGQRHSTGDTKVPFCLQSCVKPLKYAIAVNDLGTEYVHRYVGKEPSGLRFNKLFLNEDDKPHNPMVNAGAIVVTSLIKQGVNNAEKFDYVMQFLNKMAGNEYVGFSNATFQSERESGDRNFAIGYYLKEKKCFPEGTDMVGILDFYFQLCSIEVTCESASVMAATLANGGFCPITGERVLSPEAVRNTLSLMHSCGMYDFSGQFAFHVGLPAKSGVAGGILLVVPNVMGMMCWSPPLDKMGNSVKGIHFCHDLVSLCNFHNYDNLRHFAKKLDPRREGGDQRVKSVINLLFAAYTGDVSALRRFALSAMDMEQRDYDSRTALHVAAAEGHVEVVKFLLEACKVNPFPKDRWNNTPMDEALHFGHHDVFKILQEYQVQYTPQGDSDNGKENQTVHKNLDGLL

Structure (SMILES)	IC50 (NCI-H1703 cells; [2])	IC50 (GLS1)	also measured
COc1cc([C@H](OC)C(=O)Nc2nnc(N[C@@H]3CCN(c4cccnn4)C3)s2)cc(N2CC(F)C2)c1 (single isomer, unassigned) [10(b)]	–	–	IC50 (NCI-H1703 cells; [3]): 43.4 nM
COC[C@H](C(=O)Nc1nnc(N[C@@H]2CCN(c3cccnn3)C2)s1)c1cccc(OC)c1 (single isomer, unassigned) [5(b)]	120 nM	–	–
COc1cc(OC(F)(F)F)cc([C@H](OC)C(=O)Nc2nnc(N[C@@H]3CCN(c4cccnn4)C3)s2)c1 (single isomer, unassigned) [Example 11(a)]	–	–	IC50 (NCI-H1703 cells; [3]): 1.7 nM
COC[C@H](C(=O)Nc1nnc(N[C@@H]2CCN(c3ccc(C)nn3)C2)s1)c1ccccc1 (single isomer, unassigned) [Example 45(a)]	–	–	IC50 [1]: 147 nM
CO[C@H](C(=O)Nc1nnc(N[C@@H]2CCN(c3nccnn3)C2)s1)c1cccc(N2CC(F)C2)c1 (single isomer, unassigned) [15(b)]	376 nM	1310 nM	–
COC1CN(c2cccc([C@H](OC)C(=O)Nc3nnc(N[C@@H]4CCN(c5nccnn5)C4)s3)c2)C1 (single isomer, unassigned) [13(b)]	497 nM	–	–
CO[C@H](C(=O)Nc1nnc(N[C@@H]2CCN(c3cccnn3)C2)s1)c1ccc(F)c(N2CC(F)C2)c1 (single isomer, unassigned) [Example 8(a)]	–	–	IC50 (NCI-H1703 cells; [3]): 57.6 nM
CCO[C@H](C(=O)Nc1nnc(N[C@@H]2CCN(c3cccnn3)C2)s1)c1cccc(OC(F)F)c1 (single isomer, unassigned) [17(b)]	34.9 nM	–	–
COc1cc(OC)cc([C@H](OC)C(=O)Nc2nnc(N[C@@H]3CCN(c4nccnn4)C3)s2)c1 (single isomer, unassigned) [Example 16(a)]	–	25.2 nM	IC50 (NCI-H1703 cells; [3]): 3.49 nM
CO[C@H](C(=O)Nc1nnc(N[C@@H]2CCN(c3cccnn3)C2)s1)c1cccc(N2CC(F)(F)C2)c1 (single isomer, unassigned) [2(b)]	28.6 nM	–	–
COC[C@H](C(=O)Nc1nnc(N[C@@H]2CCN(c3cccnn3)C2)s1)c1cccc(OC)c1 (single isomer, unassigned) [Example 5(a)]	11.7 nM	–	–
COc1cc(OC)cc([C@H](OC)C(=O)Nc2nnc(N[C@@H]3CCN(c4nccnn4)C3)s2)c1 (single isomer, unassigned) [16(b)]	–	689 nM	–
CCO[C@H](C(=O)Nc1nnc(N[C@@H]2CCN(c3cccnn3)C2)s1)c1cccc(OC(F)(F)F)c1 (single isomer, unassigned) [19(b)]	7.59 nM	–	–
CO[C@H](C(=O)Nc1nnc(N[C@@H]2CCN(c3cccnn3)C2)s1)c1cccc(N2CC(F)(F)C2)c1 (single isomer, unassigned) [Example 2(a)]	2.5 nM	–	–
COC1CN(c2cccc([C@H](OC)C(=O)Nc3nnc(N[C@@H]4CCN(c5nccnn5)C4)s3)c2)C1 (single isomer, unassigned) [Example 13(a)]	–	75.1 nM	–
COC1CN(c2cccc([C@H](OC)C(=O)Nc3nnc(N[C@@H]4CCN(c5ccc(C)nn5)C4)s3)c2)C1 (single isomer, unassigned) [12(b)]	524 nM	–	–
CO[C@H](C(=O)Nc1nnc(N[C@@H]2CCN(c3cccnn3)C2)s1)c1ccc(F)c(OC(F)(F)F)c1 (single isomer, unassigned) [20(b)]	2.65 nM	–	–
CO[C@H](C(=O)Nc1nnc(N[C@@H]2CCN(c3nccnn3)C2)s1)c1cccc(N2CC(F)(F)C2)c1 (single isomer, unassigned) [14(b)]	156 nM	660 nM	–
CO[C@H](C(=O)Nc1nnc(N[C@@H]2CCN(c3nccnn3)C2)s1)c1cccc(N2CC(F)(F)C2)c1 (single isomer, unassigned) [Example 14(a)]	5.89 nM	91.5 nM	–
COc1cc(OC(F)(F)F)cc([C@H](OC)C(=O)Nc2nnc(N[C@@H]3CCN(c4cccnn4)C3)s2)c1 (single isomer, unassigned) [11(b)]	1.04 nM	–	–
COC1CN(c2cccc([C@H](OC)C(=O)Nc3nnc(N[C@@H]4CCN(c5ccc(F)nn5)C4)s3)c2)C1 (single isomer, unassigned) [9(b)]	122 nM	–	–
CCO[C@H](C(=O)Nc1nnc(N[C@@H]2CCN(c3cccnn3)C2)s1)c1cc(OC)cc(OC)c1 (single isomer, unassigned) [Example 6(a)]	2.2 nM	–	–
CO[C@H](C(=O)Nc1nnc(N[C@@H]2CCN(c3nccnn3)C2)s1)c1cccc(N2CC(F)C2)c1 (single isomer, unassigned) [Example 15(a)]	11.6 nM	77.6 nM	–
COCC(C(=O)Nc1nnc(N[C@@H]2CCN(c3ccc(C)nn3)C2)s1)c1ccccc1 (single isomer, unassigned) [Example 45(a)]	–	1600 nM	–
CCO[C@H](C(=O)Nc1nnc(N[C@@H]2CCN(c3cccnn3)C2)s1)c1cccc(N2CC(OC)C2)c1 [Example 22(a), (2S)-2-ethoxy-2-[3-(3-methoxyazetidin-1-yl)phenyl]-N-[5-[[(3R)-1-pyridazin-3-ylpyrrolidin-3-yl]amino]-1,3,4-thiadiazol-2-yl]acetamide]	–	–	IC50 (NCI-H1703 cells; [3]): 5.35 nM

Further lines, with some results ahead:

IC50 (NCI-H1703 cells; [2])	Structure (SMILES)	IC50 (GLS1)	also measured
82.5 nM	COC(C(=O)Nc1nnc(N[C@@H]2CCN(c3ccc(C)nn3)C2)s1)c1cccc(N2CC(F)(F)C2)c1 (stereo partly drawn) [Example 40, 2-[3-(3,3-difluoroazetidin-1-yl)phenyl]-2-methoxy-N-[5-[[(3R)-1-(6-methylpyridazin-3-yl)pyrrolidin-3-yl]amino]-1,3,4-thiadiazol-2-yl]acetamide]	311 nM	–
303 nM	COC(C(=O)Nc1nnc(N[C@@H]2CCN(c3cccnn3)C2)s1)c1ccc(F)c(N2CC(F)(F)C2)c1 (stereo partly drawn) [Example 38, 2-[3-(3,3-difluoroazetidin-1-yl)-4-fluoro-phenyl]-2-methoxy-N-[5-[[(3R)-1-pyridazin-3-ylpyrrolidin-3-yl]amino]-1,3,4-thiadiazol-2-yl]acetamide]	190 nM	–
1.56 nM	CCO[C@H](C(=O)Nc1nnc(N[C@@H]2CCN(c3cccnn3)C2)s1)c1cccc(OC(F)F)c1 (single isomer, unassigned) [Example 17(a)]	–	–
1.46 nM	COC(C(=O)Nc1nnc(N[C@@H]2CCN(c3ccc(F)nn3)C2)s1)c1cccc(N2CC(F)(F)C2)c1 (stereo partly drawn) [Example 41, 2-[3-(3,3-difluoroazetidin-1-yl)phenyl]-N-[5-[[(3R)-1-(6-fluoropyridazin-3-yl)pyrrolidin-3-yl]amino]-1,3,4-thiadiazol-2-yl]-2-methoxy-acetamide]	–	–
4.9 nM	COC1CN(c2cccc([C@H](OC)C(=O)Nc3nnc(N[C@@H]4CCN(c5ccc(F)nn5)C4)s3)c2)C1 (single isomer, unassigned) [Example 9(a)]	–	–
6.57 nM	CO[C@H](C(=O)Nc1nnc(N[C@@H]2CCN(c3cccnn3)C2)s1)c1ccc(F)c(OC(F)(F)F)c1 (single isomer, unassigned) [Example 20(a)]	–	–
2.61 nM	CCO[C@H](C(=O)Nc1nnc(N[C@@H]2CCN(c3cccnn3)C2)s1)c1cccc(OC(F)(F)F)c1 (single isomer, unassigned) [Example 19(a)]	–	–
5.35 nM	CCOC(C(=O)Nc1nnc(N[C@@H]2CCN(c3cccnn3)C2)s1)c1cccc(N2CC(OC)C2)c1 (stereo partly drawn) [Example 33, 2-ethoxy-2-[3-(3-methoxyazetidin-1-yl)phenyl]-N-[5-[[(3R)-1-pyridazin-3-ylpyrrolidin-3-yl]amino]-1,3,4-thiadiazol-2-yl]acetamide]	–	–
98.7 nM	CCOC(C(=O)Nc1nnc(N[C@@H]2CCN(c3cccnn3)C2)s1)c1cccc(N2CC(F)C2)c1 (single isomer, unassigned) [Example 32]	188 nM	–
32.9 nM	COC1CN(c2cccc([C@H](OC)C(=O)Nc3nnc(N[C@@H]4CCN(c5ccc(C)nn5)C4)s3)c2)C1 (single isomer, unassigned) [Example 12(a)]	–	–
